From US20090270413A1, “DI-T-BUTYLPHENYL PIPERAZINES AS CALCIUM CHANNEL BLOCKERS” (priority 2008, published 2009) come the findings set out here.

The test addresses T1, Human Cav2.2 channels (Homo sapiens, UniProt Q00975).
T1 construct: expressed in transfected cells
The experiment in a line: Block of Cav2.2 (N-type) channels expressed in HEK293 cells. The class given is cell-based. The note with it: HEK293; for inhibition at 10 µM: read-out: Cav 2.2 % Inh @ 10 μM; for inhibition at 30 µM: read-out: Cav 2.2 % Inh @ 30 μM. The source says: Human Cav2.2 channels were stably expressed in HEK293 cells along with alpha2-delta and beta subunits of voltage-gated calcium channels. An inwardly rectifying potassium channel (Kir2.3) was also expressed in these cells to allow more precise control of the cell membrane potential by extracellular potassium concentration. At low bath potassium concentration, the membrane potential is relatively negative, and is depolarized as the bath potassium concentration is raised. In this way, the bath potassium concentration can be used to regulate the voltage-dependent conformations of the channels. Compounds are incubated with cells in the presence of low (4 mM) potassium or elevated (12, 25 or 30 mM) potassium to determine the affinity for compound block of resting (closed) channels at 4 mM potassium or affinity for block of open and inactivated channels at 12, 25 or 30 mM potassium. After the incubation period, Cav2.2 channel opening is triggered by addition of higher concentration of potassium (70 mM final concentration) to further depolarize the cell. The degree of state-dependent block can be estimated from the inhibitory potency of compounds after incubation in different potassium concentrations.
Calcium influx through Cav2.2 channels is determined using a calcium sensitive fluorescent dye in combination with a fluorescent plate reader. Fluorescent changes were measured with either a VIPR (Aurora Instruments) or FLIPR (Molecular Devices) plate reader.
Protocol • 1. Seed cells in Poly-D-Lysine Coated 96 or 384-well plate and keep in a 37° C.-10% CO2 incubator overnight • 2. Remove media, wash cells with 0.2 mL (96-well plate) or 0.05 mL (384-well plate) Dulbecco's Phosphate Buffered Saline (D-PBS) with calcium & magnesium (Invitrogen; 14040) • 3. Add 0.1 mL (96-well plate) or 0.05 mL (384-well plate) of 4 μM fluor-4 (Molecular Probes; F-14202) and 0.02% Pluronic acid (Molecular Probes; P-3000) prepared in D-PBS with calcium & magnesium (Invitrogen; 14040) supplemented with 10 mM Glucose & 10 mM Hepes/NaOH; pH 7.4 • 4. Incubate in the dark at 25° C. for 60-70 min • 5. Remove dye, wash cells with 0.1 mL (96-well plate) or 0.06 mL (384-well plate) of 4, 12, 25, or 30 mM Potassium Pre-polarization Buffer (PPB) • 6. Add 0.1 mL (96-well plate) or 0.03 mL (384-well plate) of 4, 12, 25, 30 mM PPB with or without test compound • 7. Incubate in the dark at 25° C. for 30 min • 8. Read cell plate on VIPR instrument, Excitation=480 nm, Emission=535 nm • 9. With VIPR continuously reading, add 0.1 mL (96-well plate) or 0.03 mL (384-well plate) of Depolarization Buffer (DB), which is 2× the final assay concentration, to the cell plate.
Block of N-type calcium channels is evaluated utilizing the IonWorks HT 384 well automated patch clamp electrophysiology device. This instrument allows synchronous recording from 384 well (48 at a time). A single whole cell recording is made in each well. Whole cell recording is established by perfusion of the internal compartment with amphotericin B.
The voltage protocol is designed to detect use-dependent block. A 2 Hz train of depolarizations (twenty 25 ms steps to +20 mV). The experimental sequence consists of a control train (pre-compound), incubation of cells with compound for 5 minutes, followed by a second train (post-compound). Use dependent block by compounds is estimated by comparing fractional block of the first pulse in the train to block of the 20th pulse.
Parallel patch clamp electrophysiology is performed using IonWorks HT (Molecular Devices Corp) essentially as described by Kiss and colleagues (Kiss et al. 2003; Assay and Drug Development Technologies, 1:127-135). Briefly, a stable HEK 293 cell line (referred to as CBK) expressing the N-type calcium channel subunits (α1B, α2δ, β3a) and an inwardly rectifying potassium channel (Kir2.3) is used to record barium current through the N-type calcium channel. Cells are grown in T75 culture plates to 60-90% confluence before use. […]

Each structure is given as a SMILES string.

T1 sequence (Q00975 whole entry): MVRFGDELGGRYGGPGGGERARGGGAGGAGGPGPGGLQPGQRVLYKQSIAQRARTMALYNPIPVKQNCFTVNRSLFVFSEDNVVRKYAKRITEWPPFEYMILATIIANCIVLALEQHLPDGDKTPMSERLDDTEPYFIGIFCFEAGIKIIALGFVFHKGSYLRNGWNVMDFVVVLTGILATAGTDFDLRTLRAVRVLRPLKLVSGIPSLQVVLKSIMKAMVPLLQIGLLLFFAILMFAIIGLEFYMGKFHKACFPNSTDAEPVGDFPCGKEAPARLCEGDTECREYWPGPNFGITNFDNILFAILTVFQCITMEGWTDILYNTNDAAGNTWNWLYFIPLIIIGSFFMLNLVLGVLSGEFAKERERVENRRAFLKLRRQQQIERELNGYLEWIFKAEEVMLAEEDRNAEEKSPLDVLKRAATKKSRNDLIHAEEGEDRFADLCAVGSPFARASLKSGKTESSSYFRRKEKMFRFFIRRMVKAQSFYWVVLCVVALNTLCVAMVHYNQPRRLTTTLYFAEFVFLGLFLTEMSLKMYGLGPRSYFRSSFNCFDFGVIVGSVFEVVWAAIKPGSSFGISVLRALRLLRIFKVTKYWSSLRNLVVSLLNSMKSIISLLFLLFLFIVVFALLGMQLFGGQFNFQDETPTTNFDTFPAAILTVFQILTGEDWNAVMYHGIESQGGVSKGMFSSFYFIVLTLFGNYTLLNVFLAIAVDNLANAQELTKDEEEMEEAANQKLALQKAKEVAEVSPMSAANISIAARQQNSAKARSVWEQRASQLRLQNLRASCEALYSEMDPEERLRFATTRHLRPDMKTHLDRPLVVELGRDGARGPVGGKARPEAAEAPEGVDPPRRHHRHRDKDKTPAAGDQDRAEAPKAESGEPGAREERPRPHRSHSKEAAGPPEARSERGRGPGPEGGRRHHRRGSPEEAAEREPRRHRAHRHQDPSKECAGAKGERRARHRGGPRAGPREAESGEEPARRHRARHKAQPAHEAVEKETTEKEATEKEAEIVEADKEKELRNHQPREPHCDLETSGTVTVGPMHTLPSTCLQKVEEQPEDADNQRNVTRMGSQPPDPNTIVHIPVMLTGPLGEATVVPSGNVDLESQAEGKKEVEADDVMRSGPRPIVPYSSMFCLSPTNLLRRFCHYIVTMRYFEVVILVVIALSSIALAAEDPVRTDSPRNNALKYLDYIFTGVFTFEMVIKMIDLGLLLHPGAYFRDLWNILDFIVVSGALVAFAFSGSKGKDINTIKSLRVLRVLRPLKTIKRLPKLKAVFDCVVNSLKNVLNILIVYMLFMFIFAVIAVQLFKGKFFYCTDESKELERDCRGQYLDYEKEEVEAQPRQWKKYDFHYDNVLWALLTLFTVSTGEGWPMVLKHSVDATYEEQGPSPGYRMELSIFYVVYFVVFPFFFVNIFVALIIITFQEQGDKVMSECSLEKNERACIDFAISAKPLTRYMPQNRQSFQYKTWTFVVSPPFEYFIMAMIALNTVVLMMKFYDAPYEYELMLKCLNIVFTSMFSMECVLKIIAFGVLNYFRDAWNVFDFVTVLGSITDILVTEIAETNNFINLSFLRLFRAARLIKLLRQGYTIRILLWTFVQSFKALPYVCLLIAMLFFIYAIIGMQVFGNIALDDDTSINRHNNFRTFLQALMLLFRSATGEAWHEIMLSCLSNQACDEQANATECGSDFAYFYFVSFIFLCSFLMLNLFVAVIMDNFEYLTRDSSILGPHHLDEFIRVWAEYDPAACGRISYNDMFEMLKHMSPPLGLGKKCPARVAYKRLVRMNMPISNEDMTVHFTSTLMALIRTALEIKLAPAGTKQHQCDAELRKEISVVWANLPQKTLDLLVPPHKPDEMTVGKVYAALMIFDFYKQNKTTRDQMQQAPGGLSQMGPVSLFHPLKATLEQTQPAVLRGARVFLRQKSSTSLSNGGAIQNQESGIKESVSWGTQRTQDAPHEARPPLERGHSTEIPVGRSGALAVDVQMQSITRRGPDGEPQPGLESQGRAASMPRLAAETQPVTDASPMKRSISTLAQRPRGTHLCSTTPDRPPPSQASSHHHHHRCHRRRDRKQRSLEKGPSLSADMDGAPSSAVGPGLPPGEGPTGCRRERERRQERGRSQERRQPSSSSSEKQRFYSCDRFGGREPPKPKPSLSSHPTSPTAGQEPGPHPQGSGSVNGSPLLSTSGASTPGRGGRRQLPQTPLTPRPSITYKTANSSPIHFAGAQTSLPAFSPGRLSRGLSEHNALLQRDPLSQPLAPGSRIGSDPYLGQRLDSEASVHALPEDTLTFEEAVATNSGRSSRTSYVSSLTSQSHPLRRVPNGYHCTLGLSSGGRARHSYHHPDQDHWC
T1 sequence (P54289 25-956 partner limits assumed): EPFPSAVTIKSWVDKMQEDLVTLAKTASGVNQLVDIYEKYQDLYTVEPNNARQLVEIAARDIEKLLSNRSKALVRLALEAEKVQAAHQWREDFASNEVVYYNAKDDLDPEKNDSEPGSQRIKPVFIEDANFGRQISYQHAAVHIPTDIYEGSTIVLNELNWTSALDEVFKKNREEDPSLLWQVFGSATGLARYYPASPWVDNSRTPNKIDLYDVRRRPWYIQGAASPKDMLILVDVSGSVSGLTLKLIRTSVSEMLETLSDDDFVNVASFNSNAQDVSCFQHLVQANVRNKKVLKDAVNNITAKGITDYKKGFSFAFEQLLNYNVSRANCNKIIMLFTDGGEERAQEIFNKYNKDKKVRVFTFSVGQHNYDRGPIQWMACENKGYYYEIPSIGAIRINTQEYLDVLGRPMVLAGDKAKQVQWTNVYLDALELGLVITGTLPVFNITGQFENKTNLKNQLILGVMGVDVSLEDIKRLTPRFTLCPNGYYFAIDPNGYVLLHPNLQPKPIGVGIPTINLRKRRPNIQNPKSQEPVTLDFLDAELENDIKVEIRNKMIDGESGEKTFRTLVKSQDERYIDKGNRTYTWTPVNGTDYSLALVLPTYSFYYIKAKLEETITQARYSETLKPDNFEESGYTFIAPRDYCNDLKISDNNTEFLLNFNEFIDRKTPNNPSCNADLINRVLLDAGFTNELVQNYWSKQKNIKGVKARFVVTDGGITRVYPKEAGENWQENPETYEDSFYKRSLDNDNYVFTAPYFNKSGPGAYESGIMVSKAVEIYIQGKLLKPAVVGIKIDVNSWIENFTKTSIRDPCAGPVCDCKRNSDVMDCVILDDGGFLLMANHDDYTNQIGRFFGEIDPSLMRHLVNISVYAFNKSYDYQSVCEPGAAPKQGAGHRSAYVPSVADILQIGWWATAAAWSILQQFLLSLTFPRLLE
T1 sequence (P54289 957-1103 partner limits assumed): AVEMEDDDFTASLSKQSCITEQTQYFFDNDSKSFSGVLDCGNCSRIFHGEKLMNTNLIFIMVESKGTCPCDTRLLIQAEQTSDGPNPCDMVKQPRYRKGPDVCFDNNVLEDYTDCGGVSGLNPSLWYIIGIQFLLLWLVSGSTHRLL
T1 sequence (P54284 whole entry partner): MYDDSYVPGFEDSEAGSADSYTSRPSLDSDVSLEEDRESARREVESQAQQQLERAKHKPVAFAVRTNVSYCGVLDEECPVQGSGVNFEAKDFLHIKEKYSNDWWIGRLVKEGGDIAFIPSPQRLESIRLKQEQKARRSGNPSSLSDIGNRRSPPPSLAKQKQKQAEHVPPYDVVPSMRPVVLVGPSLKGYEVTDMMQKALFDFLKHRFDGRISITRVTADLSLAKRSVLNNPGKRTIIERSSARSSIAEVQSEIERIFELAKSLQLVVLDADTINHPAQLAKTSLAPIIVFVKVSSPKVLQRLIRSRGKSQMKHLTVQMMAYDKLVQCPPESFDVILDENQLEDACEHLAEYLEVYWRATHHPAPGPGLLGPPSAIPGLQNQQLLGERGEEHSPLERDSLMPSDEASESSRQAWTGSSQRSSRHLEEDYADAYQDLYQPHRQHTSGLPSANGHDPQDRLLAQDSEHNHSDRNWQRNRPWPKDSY

On to `Cc1cc(C(=O)N2CCN(c3cc(C(C)(C)C)cc(C(C)(C)C)c3)CC2)c(C(F)(F)F)o1` [Compound 1, (4-(3,5-di-tert-butylphenyl)piperazin-1-yl)(5-methyl-2-(trifluoromethyl)furan-3-yl)methanone], for which the inhibition at 10 µM was found to be 91% and the inhibition at 30 µM is 101%.

As to `CC(C)(C)c1cc(N2CCN(C(=O)c3ccncc3)CC2)cc(C(C)(C)C)c1` [Compound 2, (4-(3,5-di-tert-butylphenyl)piperazin-1-yl)(pyridin-4-yl)methanone], the inhibition at 10 µM was 90% and the inhibition at 30 µM is 94%.

Consider `CC(C)(C)c1cc(N2CCN(C(=O)c3ccc(S(C)(=O)=O)cc3Cl)CC2)cc(C(C)(C)C)c1` [Compound 5, (2-chloro-4-(methylsulfonyl)phenyl)(4-(3,5-di-tert-butylphenyl)piperazin-1-yl)methanone], for which the inhibition at 10 µM came out at 85% and the inhibition at 30 µM was determined as 96%.

For `CC(C)(C)c1cc(N2CCN(C(=O)c3scc(S(C)(=O)=O)c3Cl)CC2)cc(C(C)(C)C)c1` [Compound 6, (3-chloro-4-(methylsulfonyl)thiophen-2-yl)(4-(3,5-di-tert-butylphenyl)piperazin-1-yl)methanone], the inhibition at 10 µM came to 86% and the inhibition at 30 µM was found to be 95%.

On to `COc1ccc(Cl)cc1C(=O)N1CCN(c2cc(C(C)(C)C)cc(C(C)(C)C)c2)CC1` [Compound 9, (5-chloro-2-methoxyphenyl)(4-(3,5-di-tert-butylphenyl)piperazin-1-yl)methanone], for which the inhibition at 10 µM came out at 91% and the inhibition at 30 µM came to 101%.

On to `Cn1nc(C(C)(C)C)cc1C(=O)N1CCN(c2cc(C(C)(C)C)cc(C(C)(C)C)c2)CC1` [Compound 11, (3-tert-butyl-1-methyl-1H-pyrazol-5-yl)(4-(3,5-di-tert-butylphenyl)piperazin-1-yl)methanone], for which the inhibition at 10 µM turned out to be 91% and the inhibition at 30 µM is 97%.

With `CC(C)(C)c1cc(N2CCN(C(=O)c3cc(F)cc(C(F)(F)F)c3)CC2)cc(C(C)(C)C)c1` [Compound 12, (4-(3,5-di-tert-butylphenyl)piperazin-1-yl)(3-fluoro-5-(trifluoromethyl)phenyl)methanone], the inhibition at 10 µM stood at 84% and the inhibition at 30 µM turned out to be 98%.

Turning to `Cc1ccc(C(=O)N2CCN(c3cc(C(C)(C)C)cc(C(C)(C)C)c3)CC2)c(C)c1` [Compound 15, (4-(3,5-di-tert-butylphenyl)piperazin-1-yl)(2,4-dimethylphenyl)methanone], the inhibition at 10 µM was determined as 96% and the inhibition at 30 µM stood at 93%.

Turning to `CC(C)c1ccc(C(=O)N2CCN(c3cc(C(C)(C)C)cc(C(C)(C)C)c3)CC2)cc1` [Compound 17, (4-(3,5-di-tert-butylphenyl)piperazin-1-yl)(4-isopropylphenyl)methanone], the inhibition at 10 µM is 80% and the inhibition at 30 µM came to 97%.

For the compound `CC(C)(C)c1cc(N2CCN(C(=O)c3csc(-c4cccc(C(F)(F)F)c4)n3)CC2)cc(C(C)(C)C)c1` [Compound 18, (4-(3,5-di-tert-butylphenyl)piperazin-1-yl)(2-(3-(trifluoromethyl)phenyl)thiazol-4-yl)methanone], the inhibition at 10 µM worked out at 59% and the inhibition at 30 µM was 83%.

As to `CC(C)(C)c1cc(N2CCN(C(=O)c3cc4cccnc4nc3C(F)(F)F)CC2)cc(C(C)(C)C)c1` [Compound 19], the inhibition at 10 µM was found to be 49% and the inhibition at 30 µM worked out at 69%.

With `CC(C)(C)c1cc(N2CCN(C(=O)c3ccc(S(=O)(=O)C(C)(C)C)s3)CC2)cc(C(C)(C)C)c1` [Compound 21, (5-(tert-butylsulfonyl)thiophen-2-yl)(4-(3,5-di-tert-butylphenyl)piperazin-1-yl)methanone], the inhibition at 10 µM was found to be 53% and the inhibition at 30 µM turned out to be 78%.

For `CC(C)c1cc(C(=O)N2CCN(c3cc(C(C)(C)C)cc(C(C)(C)C)c3)CC2)on1` [Compound 24, (4-(3,5-di-tert-butylphenyl)piperazin-1-yl)(3-isopropylisoxazol-5-yl)methanone], the inhibition at 10 µM turned out to be 88% and the inhibition at 30 µM worked out at 96%.

For `CC(C)(C)c1cc(N2CCN(C(=O)c3cc(S(C)(=O)=O)ccc3Cl)CC2)cc(C(C)(C)C)c1` [Compound 25, (2-chloro-5-(methylsulfonyl)phenyl)(4-(3,5-di-tert-butylphenyl)piperazin-1-yl)methanone], the inhibition at 10 µM worked out at 89% and the inhibition at 30 µM stood at 99%.

Turning to `Cc1ccc(S(C)(=O)=O)cc1C(=O)N1CCN(c2cc(C(C)(C)C)cc(C(C)(C)C)c2)CC1` [Compound 26, (4-(3,5-di-tert-butylphenyl)piperazin-1-yl)(2-methyl-5-(methylsulfonyl)phenyl)methanone], the inhibition at 10 µM amounted to 87% and the inhibition at 30 µM came out at 98%.

`CC(C)c1cc(C(=O)N2CCN(c3cc(C(C)(C)C)cc(C(C)(C)C)c3)CC2)c2cnn(C(C)C)c2n1` [Compound 27, (4-(3,5-di-tert-butylphenyl)piperazin-1-yl)(1,6-diisopropyl-1H-pyrazolo[3,4-b]pyridin-4-yl)methanone]: the inhibition at 10 µM turned out to be 59% and the inhibition at 30 µM was 83%.

For `CC(C)(C)c1cc(N2CCN(C(=O)c3ccc(C(C)(C)C)s3)CC2)cc(C(C)(C)C)c1` [Compound 34, (5-tert-butylthiophen-2-yl)(4-(3,5-di-tert-butylphenyl)piperazin-1-yl)methanone], the inhibition at 10 µM is 52% and the inhibition at 30 µM turned out to be 59%.

As to `Cc1oc(C(C)(C)C)cc1C(=O)N1CCN(c2cc(C(C)(C)C)cc(C(C)(C)C)c2)CC1` [Compound 35, (5-tert-butyl-2-methylfuran-3-yl)(4-(3,5-di-tert-butylphenyl)piperazin-1-yl)methanone], the inhibition at 10 µM is 77% and the inhibition at 30 µM was determined as 95%.

On to `CC(C)(C)c1cc(N2CCN(C(=O)c3ccc(C(O)(C(F)(F)F)C(F)(F)F)cc3)CC2)cc(C(C)(C)C)c1` [Compound 36, (4-(3,5-di-tert-butylphenyl)piperazin-1-yl)(4-(1,1,1,3,3,3-hexafluoro-2-hydroxypropan-2-yl)phenyl)methanone], for which the inhibition at 10 µM was 32% and the inhibition at 30 µM stood at 73%.

Turning to `CC(C)(C)c1cc(N2CCN(C(=O)c3cc4cc(C(F)(F)F)ccc4s3)CC2)cc(C(C)(C)C)c1` [Compound 39, (4-(3,5-di-tert-butylphenyl)piperazin-1-yl)(5-(trifluoromethyl)benzo[b]thiophen-2-yl)methanone], the inhibition at 10 µM turned out to be 15% and the inhibition at 30 µM was 41%.

For `CC(C)(C)c1cc(N2CCN(C(=O)c3cc(C4CC4)nc4ccccc34)CC2)cc(C(C)(C)C)c1` [Compound 40, (2-cyclopropylquinolin-4-yl)(4-(3,5-di-tert-butylphenyl)piperazin-1-yl)methanone], the inhibition at 10 µM came to 86% and the inhibition at 30 µM is 91%.

As to `CC(C)(C)c1cc(N2CCN(C(=O)c3cc(C4CC4)n[nH]3)CC2)cc(C(C)(C)C)c1` [Compound 42, (3-cyclopropyl-1H-pyrazol-5-yl)(4-(3,5-di-tert-butylphenyl)piperazin-1-yl)methanone], the inhibition at 10 µM was 54% and the inhibition at 30 µM stood at 98%.
